Reference: patent US11040952B2, “Phthalazinone compound, method for preparation thereof, pharmaceutical composition thereof, and use thereof” (SHANGHAI INSTITUTE OF MATERIA MEDICA, CHINESE ACADEMY OF …, priority 2017, dated 2021)
Where two headings read alike, the source gives them in different places.

Experiments:
[1] = test system: HepG2.2.15 cells; assay: MTT assay for cytotoxicity; format: cell-based, Human; details: 8 days, half (50%) lethal concentration
Procedure, shortened: (§1)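 HBV-transfected HepG2.2.15 cells were cultured with compound for 8 days at 37 °C in DMEM/10% FBS, with medium changed on day 4. Viability was read by MTT (4 h, then 12 h lysis, OD570) against control wells. CC50 is the concentration cutting viability by 50%.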

[2] = test system: HBV; assay: HBV DNA content in the supernatant of cell culture (real-time PCR); format: cell-based, hepatitis B virus (HBV); details: inhibition of HBV DNA replication, HepG2.2.15 supernatant, 8 days
Procedure, shortened: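 HepG2.2.15 cells stably carrying full-length HBV exposed to compounds for 8 days in DMEM with 10% FBS, medium renewed on day 4. Supernatant virion HBV DNA extracted and quantified by real-time PCR against a 1e^7-1e^4 IU/ml standard curve; IC50 calculated.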

[3] = MTT assay for cytotoxicity; format: cell-based, Human; details: human, HepG2.2.15 cells, half (50%) lethal concentration
Procedure, shortened: as §1

[4] = molecular target: T1, HBV capsid (Hepatitis B virus genotype D subtype ayw, UniProt P03146); assay: HBV capsid assembly, non-denaturing agarose gel electrophoresis; format: cell-based; details: FIG. 1; for content of HBV DNA in the capsid: Southern blot with HBV-specific probes; for generation of abnormal capsid (electrophoretic migration): non-denaturing agarose gel, anti-HBcAg Western blot
T1 construct: expressed in transfected cells
Procedure: 1×10^6 dispersed cells were added with […] of cell lysate (50 mM Tris-HCl pH 7.5, 1 mM EDTA, 0.5% Nonidet P-40), and lysed on ice for 15 min, with vortexing every 5 min to make sure that the cells were sufficiently lysed. The lysed cells were centrifuged at 10,000×g for 10 min at 4° C. to remove nuclei and cell debris. 20 μl of the cell lysate was added into the well of 1.2% or 1.8% agarose gel. Electrophoresis was run at 70V for 2.5 h at 4° C. […] After electrophoresis, the membrane-transferring was performed by siphon overnight. One sample was transferred to a nitrocellulose membrane (Amersham™ Hybond-ECL, GE), and the capsid was detected with anti-HBcAg antibody (Abcam) using Western blot method; another sample was in situ denatured with a denaturing solution (1.5 M NaCl, 0.5 M NaOH) for 45 min, neutralized with a neutralizing solution (1.5 M NaCl, 1 M Tris-HCl pH 7.4) for 45 min, and transferred to a nylon membrane (Amersham™ Hybond-N+, GE), and then the level of nucleic acid in the capsid was detected with HBV-specific probes by using Southern blot method.

[5] = Tissue distribution in mice; format: in vivo; details: po 10 mg/kg; for concentration at 1 h / concentration at 3 h / concentration at 8 h: mouse
Procedure: 10 μl of a plasma and tissue sample was placed in a 1.5 ml centrifuge tube, added with 100 μl of an internal standard solution (5.00 ng/ml verapamil and 50.0 ng/ml Glibenclamide solution in acetonitrile), vortexed for 60 seconds, and then centrifuged for 3 min (at 12000 rpm); 75 μl of the supernatant was transferred to a 96-well plate loaded with an equal volume of water, and shaken for mixing well and then analyzed. The injection volume was 10 μl. Internal standard: an appropriate amount of verapamil and glibenclamide standards were dissolved and diluted in dimethyl sulfoxide (DMSO), shaken for mixing well, and prepared into a stock solution with a mass concentration of 2000 μg/ml, which was further diluted into internal standard working solutions of 5.00 ng/ml and 50.0 ng/ml. Stock solution: an appropriate amount of the compound was weighted and formulated into a 2.00 mg/ml stock solution with DMSO. Working solution: The stock solution was stepwisely diluted to obtain the solutions at each gradient concentration. 5.00 μl of reference standard working solution was added to 45.0 μl of a mice blank plasma and blank tissue. Then it was treated according to the method described in the section of “Sample pretreatment method”. Administration solution: a certain amount of a compound was precisely weighed and formulated into a 2.00 mg/ml milky white suspension in a ratio of 2.5% DMSO+97.5% (0.5% MC). Approximately 0.1 ml of orbital blood and liver was collected in EDTAK2 for anticoagulation from each animal that had been anesthetized with isoflurane. For the PO group, the blood was collected at 1 h, 3 h, and 8 h after administration of the test compound. After collection, the blood sample was analyzed by using comparative compounds I-70 and I-88.

[6] = Hepatitis B virus, HepG2.2.15, 192 h
[7] = liver, 1 h, read-out: Mean drug concentration, Liver
[8] = liver, 3 h, read-out: Mean drug concentration, Liver
[9] = liver, 8 h, read-out: Mean drug concentration, Liver
[10] = plasma, 1 h, read-out: Mean drug concentration, Plasma
[11] = plasma, 3 h, read-out: Mean drug concentration, Plasma
[12] = plasma, 8 h, read-out: Mean drug concentration, Plasma

T1 sequence (P03146 whole entry): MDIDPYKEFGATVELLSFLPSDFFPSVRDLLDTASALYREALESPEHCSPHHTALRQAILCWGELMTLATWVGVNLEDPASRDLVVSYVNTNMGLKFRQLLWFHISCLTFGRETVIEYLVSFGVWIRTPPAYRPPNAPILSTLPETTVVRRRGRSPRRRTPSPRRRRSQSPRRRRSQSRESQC

SMILES	CC50 at 8 days [3]	IC50 [2, 6]	content of HBV DNA in the capsid [4]	generation of abnormal capsid (electrophoretic migration) [4]	concentration at 1 h [5, 7]	concentration at 3 h [5, 8]	concentration at 1 h [5, 10]	concentration at 3 h [5, 11]	concentration at 8 h [5, 12]	also measured
CN(C)CCNc1ccc(-c2nn(Cc3ccc(C#N)cc3)c(=O)c3ccccc23)c(F)n1 [IV-37]	–	–	–	–	–	–	–	–	–	CC50 [1]: 86500 nM; IC50 [2]: 2180 nM
Nc1ccc(-c2nn(Cc3ccc(Cl)cc3)c(=O)c3ccccc23)c(F)n1 [Compound I-11]	22600 nM	900 nM	significantly reduced	induce the generation of an abnormal capsid with faster electrophoretic migration speed	1220 ng/g	1410 ng/g	33.3 ng/mL	32.5 ng/mL	23 ng/mL	concentration at 8 h [5, 9]: 815 ng/g; liver targeting [5]: good liver targeting in mice
O=c1c2ccccc2c(-c2cccnc2F)nn1Cc1ccc(Cl)cc1 [Compound I-3]	> 100000 nM	500 nM	significantly reduced	induce the generation of an abnormal capsid with faster electrophoretic migration speed	–	–	–	–	–	–
N#Cc1ccc(Cn2nc(-c3ccc(F)nc3F)c3ccccc3c2=O)cc1 [IV-5]	> 100000 nM	120 nM	–	–	1030 ng/g	1050 ng/g	154 ng/mL	63.2 ng/mL	80.1 ng/mL	concentration at 8 h [5, 9]: 1190 ng/g; liver targeting [5]: good liver targeting in mice
[2H]C(c1ccc(Cl)cc1)n1nc(-c2ccc(F)nc2F)c2ccccc2c1=O (stereo not drawn) [Compound I-26]	> 100000 nM	900 nM	significantly reduced	induce the generation of an abnormal capsid with faster electrophoretic migration speed	–	–	–	–	–	–
[2H]C(c1ccc(Cl)cc1)n1nc(-c2ccc(C)nc2F)c2ccccc2c1=O (stereo not drawn) [Compound I-24]	> 100000 nM	400 nM	significantly reduced	induce the generation of an abnormal capsid with faster electrophoretic migration speed	–	–	–	–	–	–
Cc1ccc(-c2cc(C)c(=O)n(Cc3ccc(Cl)cc3)n2)c(F)n1 [I-88, reference compound]	–	–	–	–	34.2 ng/g	9.64 ng/g	169 ng/mL	180 ng/mL	0.993 ng/mL	Mean drug concentration, Liver ([5]; 8 h): BLQ
COc1ccc(-c2nn(Cc3ccc(Cl)cc3)c(=O)c3ccccc23)c(F)n1 [Compound I-4]	–	–	–	–	–	–	–	–	–	CC50 [1]: > 100000 nM; IC50 [2]: 3100 nM
Cc1cc(-c2ccc(F)nc2F)nn(Cc2ccc(Cl)cc2)c1=O [I-70, reference compound]	–	–	–	–	–	–	161 ng/mL	71.7 ng/mL	17.3 ng/mL	Mean drug concentration, Liver ([5]; 1 h): BLQ^a; Mean drug concentration, Liver ([5]; 3 h): BLQ; Mean drug concentration, Liver ([5]; 8 h): BLQ
COc1ccc(-c2nn(Cc3ccc(Cl)cc3)c(=O)c3ccccc23)c(F)n1 [Compound I-20]	–	–	–	–	–	–	–	–	–	CC50 [1]: 33300 nM; IC50 [2]: 1300 nM
N#Cc1ccc(Cn2nc(-c3ccc(C(F)(F)F)nc3F)c3ccccc3c2=O)cc1 [IV-15]	> 100000 nM	270 nM	–	–	7270 ng/g	4460 ng/g	549 ng/mL	437 ng/mL	257 ng/mL	concentration at 8 h [5, 9]: 2800 ng/g; liver targeting [5]: good liver targeting in mice
CNc1ccc(-c2nn(Cc3ccc(Cl)cc3)c(=O)c3ccccc23)c(F)n1 [Compound I-12]	15700 nM	600 nM	significantly reduced	induce the generation of an abnormal capsid with faster electrophoretic migration speed	–	–	–	–	–	–
